# According to US12441691B2 (Cytokinetics, Inc., priority 2020, dated 2025):
# Tested on: rabbit skeletal myofibrils (fast skeletal myofibrils)
# Test: Activation of fast skeletal myofibrils (PUMA assay, AC1.4)
# Assay type: biochemical
# Conditions: calcium at pCa25, AC1.4 = concentration at which the compound increased the enzymatic activity
# Summary of the method: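 In 12 mM PIPES pH 6.8 with 2 mM MgCl2 and 1 mM DTT, Triton-washed rabbit skeletal myofibrils were run at the pCa25 calcium level. Myosin-made ADP was recycled through a PK/LDH coupled system; NADH loss read at 340 nm.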
row,SMILES,AC1.4
1,"CC[C@H](C)[C@H]1C(=O)Nc2ccccc2CN1C(=O)NCCN1CC[C@H](O)C1 [Compound 223, (S)-3-((S)-sec-butyl)-N-(2-((S)-3-hydroxypyrrolidin-1-yl)ethyl)-2-oxo-1,2,3,5-tetrahydro-4H-benzo[e][1,4]diazepine-4-carboxamide]",1.43 µM
2,"CC[C@H](C)[C@H]1C(=O)Nc2ccccc2CN1C(=O)NC1CCS(=O)(=O)C1 (stereo partly drawn) [Compound 224, (3S)-3-((S)-sec-butyl)-N-(1,1-dioxoidotetrahydrothiophen-3-yl)-2-oxo-1,2,3,5-tetrahydro-4H-benzo[e][1,4]diazepine-4-carboxamide]",2.85 µM
3,"CC[C@H](C)[C@H]1C(=O)Nc2ccccc2CN1C(=O)N(C)CCO [Compound 225, (S)-3-((S)-sec-butyl)-N-(2-hydroxyethyl)-N-methyl-2-oxo-1,2,3,5-tetrahydro-4H-benzo[e][1,4]diazepine-4-carboxamide]",1.67 µM
4,"CC[C@H](C)[C@H]1C(=O)Nc2ccccc2CN1C(=O)N1CCNCC1 [Compound 226, (S)-3-((S)-sec-butyl)-4-(piperazine-1-carbonyl)-1,3,4,5-tetrahydro-2H-benzo[e][1,4]diazepin-2-one]",3.91 µM
5,"CC[C@H](C)[C@H]1C(=O)Nc2ccccc2CN1C(=O)N1CCC(O)C1 (stereo partly drawn) [Compound 227, (3S)-3-((S)-sec-butyl)-4-(3-hydroxypyrrolidine-1-carbonyl)-1,3,4,5-tetrahydro-2H-benzo[e][1,4]diazepin-2-one]",2.29 µM
6,"CC[C@H](C)[C@H]1C(=O)Nc2ccccc2CN1C(=O)N(C)CC(N)=O [Compound 228, (S)-N-(2-amino-2-oxoethyl)-3-((S)-sec-butyl)-N-methyl-2-oxo-1,2,3,5-tetrahydro-4H-benzo[e][1,4]diazepine-4-carboxamide]",3.76 µM
7,"CC[C@H](C)[C@H]1C(=O)Nc2ccccc2CN1C(=O)N1CCNC(=O)C1 [Compound 229, (S)-3-((S)-sec-butyl)-4-(3-oxopiperazine-1-carbonyl)-1,3,4,5-tetrahydro-2H-benzo[e][1,4]diazepin-2-one]",3.74 µM
8,"CC[C@H](C)[C@H]1C(=O)Nc2ccccc2CN1C(=O)N1CCN(C)CC1 [Compound 230, (S)-3-((S)-sec-butyl)-4-(4-methylpiperazine-1-carbonyl)-1,3,4,5-tetrahydro-2H-benzo[e][1,4]diazepin-2-one]",1.31 µM
9,"CC[C@H](C)[C@H]1C(=O)Nc2ccccc2CN1C(=O)N1CCN[C@@H](C)C1 [Compound 231, (S)-3-((S)-sec-butyl)-4-((S)-3-methylpiperazine-1-carbonyl)-1,3,4,5-tetrahydro-2H-benzo[e][1,4]diazepin-2-one]",4.86 µM
10,"CC[C@H](C)[C@H]1C(=O)Nc2ccccc2CN1C(=O)N[C@@H](C)C(=O)NC [Compound 232, (S)-3-((S)-sec-butyl)-N-((S)-1-(methylamino)-1-oxopropan-2-yl)-2-oxo-1,2,3,5-tetrahydro-4H-benzo[e][1,4]diazepine-4-carboxamide]",3.47 µM
11,"CC[C@H](C)[C@H]1C(=O)Nc2ccccc2CN1C(=O)N(C)c1cnccn1 [Compound 233, (S)-3-((S)-sec-butyl)-N-methyl-2-oxo-N-(pyrazin-2-yl)-1,2,3,5-tetrahydro-4H-benzo[e][1,4]diazepine-4-carboxamide]",2.16 µM
12,"CC[C@H](C)[C@H]1C(=O)Nc2ccccc2CN1C(=O)N1CCC(N(C)C)C1 (stereo partly drawn) [Compound 234, (3S)-3-((S)-sec-butyl)-4-(3-(dimethylamino)pyrrolidine-1-carbonyl)-1,3,4,5-tetrahydro-2H-benzo[e][1,4]diazepin-2-one]",4.64 µM
13,"CC[C@H](C)[C@H]1C(=O)Nc2ccccc2CN1C(=O)N(C)C1CCN(C)C1 (stereo partly drawn) [Compound 235, (3S)-3-((S)-sec-butyl)-N-methyl-N-(1-methylpyrrolidin-3-yl)-2-oxo-1,2,3,5-tetrahydro-4H-benzo[e][1,4]diazepine-4-carboxamide]",1.45 µM
